Data: patent US9572820B2, “Methods of treating autophagy-associated disorders and related pharmaceutical compositions, diagnostics, screening techniques and kits” (priority 2011, dated 2017)
Non-standard residues stand in square brackets, D forms with d. Residues, ends and D or L forms follow the SMILES beside them. Nle = CCCC[C@H](N)C(=O)O

B1: IL-1α: cytokine used at 20 ng/ml to promote Th17 differentiation (protein, UniProt P01583 113-271, looked up)
Interleukin-1 alpha: SAPFSFLSNVKYNFMRIIKYEFILNDALNQSIIRANDQYLTAAALHNLDEAVKFDMGAYKSSKDDAKITVILRISKTQLYVTAQDEDQPVLLKEMPEIPKTITGSETNLLFFWETHGTKNYFTSVAHPNLFIATKQDYWVCLAGGPPSITDFQILENQA

Each molecule was assayed on pro-IL-1β (assay: Expression of pro-IL-1β in BMMs). Settings: cells treated with bafilomycin A1 or CA-074 Me.
Format: cell-based, murine
Experimental: To induce pro-IL-1β expression, cells were pretreated overnight with 100 ng/ml LPS (Sigma). Inflammasome was induced with […] nigericin (Sigma) for 1 h or with […] Alum (Thermoscientific) for 1 h or with […] silica crystals (MIN-U-SIL-15, US Silica) for 1 h or with […] Amyloid-b peptide (Ab; American Peptide Company) fibrils prepared as described (Moore et al, 2002). […] Starvation and other treatments (except for macrophage priming with LPS done in advance) were carried out concurrently (i.e., initiated at the same time).
For all conditions, cell-free supernatants were assayed by immunoblotting after TCA precipitation for mouse IL-1β p17 (R&D), caspase-1 p10 (Santa Cruz Biotechnology), HMGB1 (Abcam) and Cathepsin B (R&D) or by ELISA for mouse IL-1β (R&D), IL-18 (MBL), and HMGB1 (IBL). Immunofluorescence confocal microscopy was carried out using a Zeiss LSM 510 Meta microscope (laser wavelengths 488, 543, and 633 nm). Antibodies against endogenous proteins IL-1β (Abcam), Sec6 (Shu C Hsu, Rutgers University, NJ, USA), Cathepsin B (R&D), Rab8a (Abcam), GORASP1 (Novus), GORASP2 (ProteinTech Group), GM130 (BD), LC3 (MBL) and GFP (Abcam; for BMMs from GFP-LC3 knock-in transgenic mice) were used for indirect immunofluorescence analysis. […]
`CCCNC(=O)[C@H]1O[C@@H]1C(=O)N[C@H](C(=O)N1CCC[C@H]1C(=O)OC)[C@@H](C)CC` [CA-074 Me] was tested, and the “expression of pro-IL-1β” value was “No differences”.

Each molecule was assayed on naïve CD4 T cells (assay: In vitro Th17 polarization of naïve CD4 T cells (intracellular IL-17A, flow cytometry)). Settings: with TGF-β 5 ng/ml and IL-6 20 ng/ml; IL-1α or IL-1β 20 ng/ml, day 4.
Format: cell-based, mice
B1 was tested, and the “intracellular levels of IL-17A” value was “elevated”.

The molecules below were run on LC3-GFP/RFP HeLa cells (assay: Chemical library screen in the presence of a suboptimal dose of pp242). Settings: suboptimal pp242 (~0.06 uM) plus library compound.
Format: cell-based
With `C[C@H]1O[C@@H](O[C@H]2[C@@H](O)C[C@H](O[C@H]3[C@@H](O)C[C@H](O[C@H]4CC[C@@]5(C)[C@H](CC[C@@H]6[C@@H]5C[C@@H](O)[C@]5(C)[C@@H](C7=CC(=O)OC7)CC[C@]65O)C4)O[C@@H]3C)O[C@@H]2C)C[C@H](O)[C@@H]1O` [digoxin] the “modulation of autophagy in combination with mTOR inhibitor (suboptimal pp242)” value was “effective as autophagy modulators in combination”. `CCCCC(CC)CN1CN(CC(CC)CCCC)CC(C)(N)C1` (stereo not drawn) [hexetidine] was tested, and the “modulation of autophagy in combination with mTOR inhibitor (suboptimal pp242)” value was “effective as autophagy modulators in combination”. For `O=C1NCCN1CCN1CCC(c2cn(-c3ccc(F)cc3)c3ccc(Cl)cc23)CC1` [sertindole], the “modulation of autophagy in combination with mTOR inhibitor (suboptimal pp242)” value was “effective as autophagy modulators in combination”. For `Cc1cccc(C)c1N=C1NCCCS1` [xylazine], the “modulation of autophagy in combination with mTOR inhibitor (suboptimal pp242)” value was “effective as autophagy modulators in combination”.

What follows are molecules tested on IL-1α (assay: IL-1α release (ELISA) from LPS+IFN-γ stimulated BMM). Settings: Atg5fl/fl LysM-Cre+ BMM, ALLN 100 μM.
Format: cell-based, murine
With `CCCC[C@@H](C=O)NC(=O)[C@H](CC(C)C)NC(=O)[C@H](CC(C)C)NC(C)=O` [ALLN] (Ac-Leu-Leu-[Nle]-aldehyde) the “excess IL-1α production” value was “completely abrogated”.

Same assay, conditions: Atg5fl/fl LysM-Cre− BMM, LPS+IFN-γ, 12 h; 50 μg/ml rapamycin, 10 mM 3-MA or 100 nM Bafilomycin A1
In the case of `Cn1cnc(N)c2ncnc1-2` [3-methyladenine], the IL-1α secreted is reported as “significantly increased”.

These molecules were tested on IL-1β (assay: IL-1β secretion from LPS-pretreated BMMs (ELISA)). Settings: pp242 in full medium, 1 h.
Format: cell-based, murine
Experimental: FIG. 1X3. induction of autophagy enhances IL-1β secretion. (A) Atg5fl/fl Cre^− and Atg^5fl/fl Cre^+ bone marrow-derived macrophages (BMMs), pretreated overnight with 100 ng/ml LPS, were stimulated for 1 h with the inflammasome agonist nigericin ([…]) with (Starvation; EBSS) or without (Full; full medium) autophagic induction. Cell culture supernatants were assayed for murine IL-1β by ELISA. Data represent mean values±s.d. (nX3); *Po0.05. (B) LPS-pretreated Atg5fl/fl Cre^− and Atg^5fl/fl Cre^+ BMMs were stimulated with […] nigericin for 1 h in OptiMEM and the release of active caspase-1 and IL-1β was determined by immunoblotting. (C) As in (A), assayed for IL-18. Data represent mean values±s.d. (nX3); *Po0.05. (D) LPS-pretreated BMMs were exposed to alum ([…]) for 1 h with or without autophagic induction by starvation. Secreted IL-1β was measured as in (A). Data represent mean values±s.d. (nX3); *Po0.05. (E) LPS-pretreated BMMs were exposed to silica ([…]) for 1 h with or without autophagic induction by starvation. Secreted IL-1β was measured as in (A). Data represent mean values±s.d. (nX3); *Po0.05. (F) BMMs were transfected with scramble (Scr) control siRNA or siRNAs against ASC and NLRP3. After 48 h following transfection, cells were treated overnight with LPS and subjected to nigericin ([…]) and starvation for 1 h. Data represent mean values±s.d. (nX3); *Po0.05. (G) Immunoblot analysis of ASC and NLRP3 knockdowns. (H) BMMs were transfected with scramble
FIG. 2X3 Autophagic pathway progression promotes secretion of inflammasome substrates. (A, B) LPS-pretreated BMMs were treated with […] nigericin (Nig) and 100 nM bafilomycin A1 (Baf) with (Starvation) or without (Full) autophagic induction for 1 h and secreted IL-1β (A) and IL-18 (B) were measured. Data represent mean values+s.d. (nX3); *Po0.05. (C) LPS-pretreated BMMs were treated with […] of silica and 100 nM bafilomycin A1 (Baf) with (Starvation) or without (Full) autophagic induction for 1 h and secreted IL-1β were measured. Data represent mean values±s.d. (nX3); *Po0.05. (D) Colocalization of cathepsin B with the basal autophagic machinery factor LC3 and IL-1b. Fluorescence; LC3 (green, Alexa488), IL-1β (red, Alexa568), and cathepsin B (blue, Alexa633). BMMs from GFP-LC3 knockin mice were treated with LPS and then analysed for immunofluorescence. (E) Colocalization line tracing analysis from images in (D). (F) LPS-pretreated BMMs were treated with […] nigericin and cathepsin B inhibitor CA-074 Me […] , with (Starvation) or without (Full) autophagic induction, for 1 h and secreted IL-1β was measured. […] (G) LPS-pretreated Atg^5fl/fl Cr^+ and Atg^5fl/fl Cre^− BMMs were stimulated with […] nigericin for 1 h in OptiMEM and release of cathepsin B was determined by immunoblotting. […]
`CC(C)n1nc(-c2cc3cc(O)ccc3[nH]2)c2c(N)ncnc21` [pp242] was tested, and the “secretion of IL-1β” value was “increased secretion of IL-1β”.

Same assay, conditions: starvation, nigericin, 1 h
`CCCNC(=O)[C@H]1O[C@@H]1C(=O)N[C@H](C(=O)N1CCC[C@H]1C(=O)OC)[C@@H](C)CC` [CA-074 Me] was tested, and the IL-1β secretion was “strongly inhibited IL-1β secretion”.

What follows are molecules tested on LC3-GFP/RFP HeLa cells (assay: High-content imaging screen of LC3-GFP/RFP puncta (Cellomics ArrayScan)). Settings: LC3-GFP/RFP puncta per cell, 4 hours incubation; hit = 3 standard deviations above or below mean of negative control wells.
Format: cell-based
Experimental: FIG. 1X6. Use of Cellomics ArrayScan to detect induction of authophagy. […] Wells were scanned for number, area, or intensity of GFP+ or RFP+ puncta per cell using a Cellomics ArrayScan. Negative control (DMF-treated) wells were also measured. Each dot represents the data from a single well.
FIG. 2X6. Chemical library screen for modulation of autophagy. LC3-RFP/GFP HeLa cells were incubated with compounds from the chemical library for 4 hours, then fixed in 0.1% PFA. Wells were scanned using a Cellomics ArrayScan. […] Each dot represents the data from a single well.
FIG. 4X6. […] Wells were scanned using a Cellomics ArrayScan. […] Each dot represents the data from four separate wells, and error bars are standard deviation.
LC3 is a widely-used marker for autophagic vacuoles. HeLa cells stably transduced with LC3-GFP/RFP tandem construct generate fluorescent autophagic puncta, which are either green/yellow (early autophagosomes) or red (late autophagosomes fused with lysosomes, which degrades the GFP). By quantitating the number or total area of fluorescent puncta per cell, we can detect alterations in autophagic flux and regulation. […]
Using the above system, we performed two separate screens on a chemical library. This library contains 1,200 FDA-approved compounds, and represents wide functional and chemical diversity. This library spans four 384-well plates, with 64 wells on each plate with DMSO only as negative controls. […] A hit was defined as 3 standard deviations above or below the mean of the negative control wells on a given plate.
With `CC(=O)[O-].[Hg+][c]1ccccc1` [phenylmercuric acetate] the “modulation of autophagy (agonist/inducer or antagonist/inhibitor)” value was “antagonists or inhibitors of autophagy”. With `COCCCC/C(=N\OCCN)c1ccc(C(F)(F)F)cc1` [fluvoxamine] the “modulation of autophagy (agonist/inducer or antagonist/inhibitor)” value was “agonists or inducers of autophagy”. For `CN(Cc1cc(Br)cc(Br)c1N)C1CCCCC1` [bromhexine], the “modulation of autophagy (agonist/inducer or antagonist/inhibitor)” value was “agonists or inducers of autophagy”. `CC12CC3CC(C)(C1)CC(N)(C3)C2` [memantine] was tested, and the “modulation of autophagy (agonist/inducer or antagonist/inhibitor)” value was “agonists or inducers of autophagy”. `CCN(CC)CCOc1ccc(C(=C(Cl)c2ccccc2)c2ccccc2)cc1.O=C(O)CC(O)(CC(=O)O)C(=O)O` [clomiphene citrate (Z,E)] was tested, and the “modulation of autophagy (agonist/inducer or antagonist/inhibitor)” value was “agonists or inducers of autophagy”. In the case of `CC[N+](C)(CC)CCC[n+]1c(-c2ccccc2)c2cc(N)ccc2c2ccc(N)cc21.[I-].[I-]` [propidium iodide], the “modulation of autophagy (agonist/inducer or antagonist/inhibitor)” value is reported as “agonists or inducers of autophagy”. In the case of `O=C(Nc1ccccc1)OCC(CN1CCCCC1)OC(=O)Nc1ccccc1` (stereo not drawn) [diperodon], the “modulation of autophagy (agonist/inducer or antagonist/inhibitor)” value is reported as “agonists or inducers of autophagy”. With `CNCCC=C1c2ccccc2CCc2ccccc21` [nortriptyline] the “modulation of autophagy (agonist/inducer or antagonist/inhibitor)” value was “agonists or inducers of autophagy”. `CCCCc1cc2ccccc2c(OCCN(C)C)n1` [dimethisoquin] was tested, and the “modulation of autophagy (agonist/inducer or antagonist/inhibitor)” value was “agonists or inducers of autophagy”. In the case of `CNCC(O)c1ccc(OC(=O)C(C)(C)C)c(OC(=O)C(C)(C)C)c1` (stereo not drawn) [dipivefrin], the “modulation of autophagy (agonist/inducer or antagonist/inhibitor)” value is reported as “agonists or inducers of autophagy”. For `CN1CCCC(CC2c3ccccc3Sc3ccccc32)C1` (stereo not drawn) [metixene], the “modulation of autophagy (agonist/inducer or antagonist/inhibitor)” value was “agonists or inducers of autophagy”. With `COC(=O)Nc1nc2cc(C(=O)c3ccc(F)cc3)ccc2[nH]1` [flubendazole] the “modulation of autophagy (agonist/inducer or antagonist/inhibitor)” value was “agonists or inducers of autophagy”. In the case of `CC(C)COCC(CN(Cc1ccccc1)c1ccccc1)N1CCCC1` (stereo not drawn) [bepridil], the “modulation of autophagy (agonist/inducer or antagonist/inhibitor)” value is reported as “agonists or inducers of autophagy”. With `Oc1c(Cl)cc(Cl)c(Cl)c1Cc1c(O)c(Cl)cc(Cl)c1Cl` [hexachlorophene] the “modulation of autophagy (agonist/inducer or antagonist/inhibitor)” value was “agonists or inducers of autophagy”. With `CNCCC=C1c2ccccc2C=Cc2ccccc21` [norcyclobenzaprine] the “modulation of autophagy (agonist/inducer or antagonist/inhibitor)” value was “agonists or inducers of autophagy”. For `N#Cc1c(Cl)c(Cl)c(Cl)c(C#N)c1Cl` [tetrachlorisophthalonitrile], the “modulation of autophagy (agonist/inducer or antagonist/inhibitor)” value was “antagonists or inhibitors of autophagy”.

Same assay, conditions: from pp242 dose response
In the case of `CC(C)n1nc(-c2cc3cc(O)ccc3[nH]2)c2c(N)ncnc21` [pp242], the “suboptimal dose that did not induce autophagy” value is reported as roughly 0.06 µM.
